Where “and” joins values, the source holds several entries; their conditions need not be identical. Equal entries are not always repeated.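 1) Cells in 96-well plates. 2) Compound, 48 h, 5 concentrations. 3) Linear interpolation between surrounding doses. 4) Unreached endpoint = highest concentration. GI50 marks 50% less growth. The concentration for full growth arrest is given as TGI.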
Experiments:
Assay in all cases: growth of human tumour cells (NCI), 48 h
HOP-62 NSCLC = test system: HOP-62 NSCLC
HS 578T breast = test system: HS 578T breast
LOX IMVI melanoma = test system: LOX IMVI melanoma
M14 melanoma = test system: M14 melanoma
MDA-N = test system: MDA-N
MOLT-4 leukemia = test system: MOLT-4 leukemia
OVCAR-5 ovarian = test system: OVCAR-5 ovarian
RPMI-8226 leukemia = test system: RPMI-8226 leukemia
SK-MEL-5 melanoma = test system: SK-MEL-5 melanoma
SR leukemia = test system: SR leukemia
U251 CNS = test system: U251 CNS
UACC-257 melanoma = test system: UACC-257 melanoma

## Nc1nc2ncc(SCc3ccc(C(=O)NC(CCC(=O)O)C(=O)O)cc3)cc2c(=O)[nH]1 (centres undefined)
HOP-62 NSCLC
  TGI: > 100 µM
HS 578T breast
  TGI: > 100 µM
LOX IMVI melanoma
  TGI: > 100 µM
M14 melanoma
  TGI: > 100 µM
MDA-N
  TGI: > 100 µM
MOLT-4 leukemia
  TGI: > 100 µM
OVCAR-5 ovarian
  TGI: > 100 µM
RPMI-8226 leukemia
  TGI: > 100 µM
SK-MEL-5 melanoma
  TGI: > 100 µM
SR leukemia
  TGI: > 100 µM
U251 CNS
  TGI: > 100 µM
UACC-257 melanoma
  TGI: > 100 µM

## COc1ccc(-c2c(C#N)c(S)n(C3OC(COC(C)=O)C(OC(C)=O)C(OC(C)=O)C3OC(C)=O)c(=O)c2C#N)cc1 (centres undefined)
HOP-62 NSCLC
  TGI: 67.5 µM and > 100 µM
HS 578T breast
  TGI: 93.7 µM and 95.5 µM
LOX IMVI melanoma
  TGI: > 100 µM
M14 melanoma
  TGI: > 100 µM
MDA-N
  GI50: > 100 µM and 34.8 µM
  TGI: > 100 µM
MOLT-4 leukemia
  GI50: > 100 µM and 39.2 µM
  TGI: > 100 µM
OVCAR-5 ovarian
  TGI: > 100 µM
RPMI-8226 leukemia
  GI50: > 100 µM and 23.4 µM
  TGI: > 100 µM and 60.5 µM
SK-MEL-5 melanoma
  GI50: 60.7 µM and 29.3 µM
  TGI: > 100 µM
SR leukemia
  GI50: 3.43 µM and 17.9 µM
  TGI: > 100 µM and 59.3 µM
U251 CNS
  GI50: 36.8 µM and 75.2 µM
  TGI: > 100 µM
UACC-257 melanoma
  GI50: > 100 µM and 19.8 µM
  TGI: > 100 µM and 42 µM

## O=C1CC2C=CC(O)C(C1)C2 (centres undefined)
HOP-62 NSCLC
  TGI: > 100 µM
HS 578T breast
  TGI: > 100 µM
LOX IMVI melanoma
  TGI: > 100 µM
M14 melanoma
  TGI: > 100 µM
MDA-N
  TGI: > 100 µM
MOLT-4 leukemia
  TGI: > 100 µM
OVCAR-5 ovarian
  TGI: > 100 µM
RPMI-8226 leukemia
  TGI: > 100 µM
SR leukemia
  TGI: > 100 µM
U251 CNS
  TGI: > 100 µM
UACC-257 melanoma
  TGI: > 100 µM

## N#Cc1c(N)[nH]c(=S)c(C#N)c1-c1cccc(Cl)c1
HOP-62 NSCLC
  TGI: > 100 µM
HS 578T breast
  TGI: 94.1 µM
LOX IMVI melanoma
  TGI: > 100 µM
M14 melanoma
  TGI: > 100 µM
MDA-N
  TGI: 37.8 µM
MOLT-4 leukemia
  TGI: 57.8 µM
OVCAR-5 ovarian
  TGI: > 100 µM
RPMI-8226 leukemia
  TGI: 94.5 µM
SK-MEL-5 melanoma
  TGI: > 100 µM
SR leukemia
  TGI: 40.6 µM
U251 CNS
  TGI: > 100 µM
UACC-257 melanoma
  TGI: > 100 µM

## N#C/C(=C\NC(=S)Nc1ccc(S(=O)(=O)Nc2ccccn2)cc1)C(N)=O
HOP-62 NSCLC
  TGI: > 100 µM
HS 578T breast
  TGI: > 100 µM
LOX IMVI melanoma
  TGI: > 100 µM
M14 melanoma
  TGI: > 100 µM
MDA-N
  TGI: > 100 µM
MOLT-4 leukemia
  TGI: > 100 µM
OVCAR-5 ovarian
  TGI: > 100 µM
RPMI-8226 leukemia
  TGI: > 100 µM
SK-MEL-5 melanoma
  TGI: > 100 µM
SR leukemia
  TGI: > 100 µM
U251 CNS
  TGI: > 100 µM
UACC-257 melanoma
  TGI: > 100 µM

## CC(=O)NC1C(OCc2ccccc2)OC(CO)C(O)C1OCC(=O)N[C@@H](C)C(=O)N[C@H](CCC(=O)NCCNCCNc1c2ccccc2nc2cccc([N+](=O)[O-])c12)C(N)=O (some centres undefined)
HOP-62 NSCLC
  TGI: > 100 µM
HS 578T breast
  TGI: > 100 µM
LOX IMVI melanoma
  TGI: 61.9 µM
M14 melanoma
  TGI: > 100 µM
MDA-N
  TGI: > 100 µM
OVCAR-5 ovarian
  TGI: > 100 µM
RPMI-8226 leukemia
  TGI: 73.3 µM
SK-MEL-5 melanoma
  TGI: 39.5 µM
SR leukemia
  TGI: > 100 µM
U251 CNS
  TGI: > 100 µM
UACC-257 melanoma
  TGI: 43 µM

## [N-]=[N+]=Nc1c(Cl)c(=O)n(-c2ccccc2)c2ccccc12
HOP-62 NSCLC
  TGI: 58.6 µM
HS 578T breast
  TGI: 76.9 µM
LOX IMVI melanoma
  TGI: 29.5 µM
M14 melanoma
  TGI: 36.3 µM
MDA-N
  TGI: 52.9 µM
MOLT-4 leukemia
  TGI: 38.4 µM
OVCAR-5 ovarian
  TGI: 42.4 µM
RPMI-8226 leukemia
  TGI: > 100 µM
SK-MEL-5 melanoma
  TGI: 18.5 µM
SR leukemia
  TGI: > 100 µM
UACC-257 melanoma
  TGI: 47.1 µM

## C=CC(=O)c1ccc2c(c1)OCCOCCOCCOCCOCCO2
HOP-62 NSCLC
  TGI: > 100 µM
HS 578T breast
  TGI: > 100 µM
LOX IMVI melanoma
  TGI: 35.6 µM
M14 melanoma
  TGI: 41.6 µM
MDA-N
  TGI: > 100 µM
MOLT-4 leukemia
  TGI: > 100 µM
OVCAR-5 ovarian
  TGI: > 100 µM
RPMI-8226 leukemia
  TGI: > 100 µM
SK-MEL-5 melanoma
  TGI: > 100 µM
SR leukemia
  TGI: > 100 µM
U251 CNS
  TGI: > 100 µM
UACC-257 melanoma
  TGI: 35.6 µM

## O=C1CC(C(O)CO)CC(=O)N1 (centres undefined)
HOP-62 NSCLC
  TGI: > 100 µM
HS 578T breast
  TGI: > 100 µM
LOX IMVI melanoma
  TGI: > 100 µM
M14 melanoma
  TGI: > 100 µM
MDA-N
  TGI: > 100 µM
OVCAR-5 ovarian
  TGI: > 100 µM
RPMI-8226 leukemia
  TGI: > 100 µM
SK-MEL-5 melanoma
  TGI: > 100 µM
SR leukemia
  TGI: > 100 µM
U251 CNS
  TGI: > 100 µM
UACC-257 melanoma
  TGI: > 100 µM

## COc1ccc(-c2c(C#N)c(N)n(C3OC(CO)C(O)C(O)C3O)c(=S)c2C#N)cc1 (centres undefined)
HOP-62 NSCLC
  TGI: > 100 µM
HS 578T breast
  TGI: 47.4 µM
LOX IMVI melanoma
  TGI: > 100 µM
M14 melanoma
  TGI: > 100 µM
MDA-N
  TGI: > 100 µM
MOLT-4 leukemia
  TGI: > 100 µM
OVCAR-5 ovarian
  TGI: > 100 µM
RPMI-8226 leukemia
  TGI: > 100 µM
SK-MEL-5 melanoma
  TGI: > 100 µM
SR leukemia
  TGI: > 100 µM
U251 CNS
  TGI: > 100 µM
UACC-257 melanoma
  TGI: > 100 µM

## O=c1c2ccccc2[nH]c(=S)n1-c1ccc(N=Nc2cccc3c(O)cccc23)cc1
HOP-62 NSCLC
  TGI: > 100 µM
HS 578T breast
  TGI: > 100 µM
LOX IMVI melanoma
  TGI: > 100 µM
M14 melanoma
  TGI: > 100 µM
MDA-N
  TGI: > 100 µM
MOLT-4 leukemia
  TGI: > 100 µM
OVCAR-5 ovarian
  TGI: > 100 µM
RPMI-8226 leukemia
  TGI: > 100 µM
SK-MEL-5 melanoma
  TGI: > 100 µM
SR leukemia
  TGI: > 100 µM
U251 CNS
  TGI: > 100 µM
UACC-257 melanoma
  TGI: > 100 µM

## Cc1cn(C2C=CC(COP(=O)(OCC3=CC(=O)c4ccccc4C3=O)N(C)CCCCCl)O2)c(=O)[nH]c1=O (centres undefined)
HOP-62 NSCLC
  TGI: 23.9 µM
HS 578T breast
  TGI: 18.6 µM
LOX IMVI melanoma
  TGI: 8.66 µM
M14 melanoma
  TGI: 2.84 µM
MDA-N
  TGI: 4.22 µM
MOLT-4 leukemia
  TGI: 0.769 µM
OVCAR-5 ovarian
  TGI: 27.1 µM
RPMI-8226 leukemia
  TGI: 20.8 µM
SK-MEL-5 melanoma
  TGI: 2.28 µM
SR leukemia
  TGI: 2.05 µM
U251 CNS
  TGI: 17.7 µM
UACC-257 melanoma
  TGI: 13.9 µM

## Cc1cc(-c2nc3ccccc3s2)ccc1NS(=O)(=O)O
HOP-62 NSCLC
  TGI: > 100 µM
HS 578T breast
  TGI: > 59.5 µM
LOX IMVI melanoma
  TGI: > 51.2 µM
M14 melanoma
  TGI: > 100 µM
MDA-N
  TGI: > 100 µM
MOLT-4 leukemia
  TGI: > 100 µM
OVCAR-5 ovarian
  TGI: > 100 µM
RPMI-8226 leukemia
  TGI: > 10.5 µM
SK-MEL-5 melanoma
  TGI: > 100 µM
SR leukemia
  TGI: > 100 µM
U251 CNS
  TGI: > 100 µM
UACC-257 melanoma
  TGI: > 100 µM

## O=c1[nH]cnc2c(C3OC(CO)C(O)C3O)c[nH]c12 (centres undefined)
HOP-62 NSCLC
  TGI: > 100 µM
HS 578T breast
  TGI: > 100 µM
LOX IMVI melanoma
  TGI: > 100 µM
M14 melanoma
  TGI: > 100 µM
MDA-N
  TGI: > 100 µM
MOLT-4 leukemia
  TGI: > 100 µM
OVCAR-5 ovarian
  TGI: > 100 µM
RPMI-8226 leukemia
  TGI: > 100 µM
SK-MEL-5 melanoma
  TGI: > 100 µM
SR leukemia
  TGI: > 100 µM
U251 CNS
  TGI: > 100 µM
UACC-257 melanoma
  TGI: > 100 µM

## CC1C(c2cc(C(C)(C)C)c(O)c(C(C)(C)C)c2)c2cc3c(cc2OC1N1CCOCC1)OCO3 (centres undefined)
HOP-62 NSCLC
  TGI: 33.4 µM
HS 578T breast
  TGI: 10.6 µM
LOX IMVI melanoma
  TGI: 44.7 µM
M14 melanoma
  TGI: 59.3 µM
MDA-N
  TGI: > 100 µM
MOLT-4 leukemia
  TGI: > 100 µM
OVCAR-5 ovarian
  TGI: > 100 µM
RPMI-8226 leukemia
  TGI: > 100 µM
SK-MEL-5 melanoma
  TGI: 47.3 µM
SR leukemia
  TGI: > 100 µM
UACC-257 melanoma
  TGI: > 100 µM

## CCCCc1c(O)nc(Nc2nc3ccccc3[nH]2)[nH]c1=O
HOP-62 NSCLC
  TGI: > 100 µM
HS 578T breast
  TGI: 88 µM
LOX IMVI melanoma
  TGI: > 100 µM
M14 melanoma
  TGI: > 100 µM
MDA-N
  TGI: > 100 µM
MOLT-4 leukemia
  TGI: > 100 µM
OVCAR-5 ovarian
  TGI: > 100 µM
RPMI-8226 leukemia
  TGI: > 100 µM
SK-MEL-5 melanoma
  TGI: > 100 µM
SR leukemia
  TGI: > 100 µM
U251 CNS
  TGI: > 100 µM
UACC-257 melanoma
  TGI: > 100 µM
